Data taken from patent US4548923A, “Muramyl peptides and processes for their manufacture” (Ciba Geigy Corporation, priority 1982, dated 1985).

Legend:
Alveolar rat macrophages = assay: macrophage activation: cytotoxicity of alveolar rat macrophages against 125I-marked tumour cells; format: cell-based
Method: Alveolar rat macrophages are obtained by lung washing, plated out and incubated in vitro for 24 hours either with liposomes that are charged with the active ingredient, or with the active ingredient in physiological salt solution (phosphate buffered saline, PBS), ^125 I-marked tumour cells are added and incubation is continued for a further 72 hours. Subsequently the dead tumour cells are washed away and the number of tumour cells still living is determined on the basis of their radioactivity. […] The specific cytotoxicity [%] is calculated as follows: [formula]
Further details of the above-mentioned test method are described in I. J. Fidler et. al., J. Biol. Response Modifiers 1, 43-55 (1982).

[1] = test for pyrogenity in rabbits (European Pharmacopoeia); format: in vivo; conditions: subcutaneous administration, 30 mg/kg
Description: The test for pyrogenity can be carried out in rabbits in accordance with the instructions given in European Pharmacopoeia, Vol. 2, pages 56-59 (1971).

[2] = Active ingredient in 100 μg of lipsomes per 0.2 ml, 0.2 μg/culture
[3] = Active ingredient in 100 μg of lipsomes per 0.2 ml, 2 μg/culture
[4] = Active ingredient in 100 μg of lipsomes per 0.2 ml, 20 μg/culture
[5] = Active ingredient in 0.2 ml of PBS, 0.2 μg/culture
[6] = Active ingredient in 0.2 ml of PBS, 2 μg/culture
[7] = Active ingredient in 100 μg of lipsomes per 0.2 ml, 0.02 μg/culture
[8] = Active ingredient in 0.2 ml of PBS, 0.02 μg/culture

Compound | Specific cytotoxity [%] (Alveolar rat macrophages; [2]) | Specific cytotoxity [%] (Alveolar rat macrophages; [3]) | Specific cytotoxity [%] (Alveolar rat macrophages; [4]) | Specific cytotoxity [%] (Alveolar rat macrophages; [5]) | Specific cytotoxity [%] (Alveolar rat macrophages; [6]) | pyrogenic effect [1] | Specific cytotoxity [%] (Alveolar rat macrophages; [7]) | Specific cytotoxity [%] (Alveolar rat macrophages; [8]) | Specific cytotoxity [%] (Alveolar rat macrophages; Active ingredient in 0.2 ml of PBS, 20 μg/culture)
CCCCCCCCCCCCCCCC(=O)OC[C@H](COP(=O)([O-])OCCNC(=O)[C@H](C)NC(=O)CC[C@@H](NC(=O)[C@H](C)NC(=O)[C@@H](C)O[C@H]1[C@H](O)[C@@H](CO)OC(O)[C@@H]1NC(C)=O)C(=O)OCCCC)OC(=O)CCCCCCCCCCCCCCC.[Na+] (stereo partly drawn) [Active ingredient I, the sodium salt of N-acetylmuramyl-L-alanyl-D-glutamyl-(Cα)-n-butyl ester-(Cγ)-L-alanine-2-(1,2-dipalmitoyl-sn-glycero-3-hydroxyphosphoryloxy)-ethylamide] | 56 | 51 | 44 | 39 | 59 | no pyrogenic effect |  |  | 
CCCCCCCCCCCCCCCC(=O)OCC(COP(=O)([O-])OCCNC(=O)C(C)NC(=O)CCC(NC(=O)C(C)NC(=O)C(C)OC1C(O)C(CO)OC(O)C1NC(C)=O)C(N)=O)OC(=O)CCCCCCCCCCCCCCC.[Na+] [sodium salt of N-acetylmuramyl-L-alanyl-D-isoglutaminyl-L-alanine-2-(1,2-dipalmitoyl-sn-glycero-3-hydroxyphosphoryloxy)-ethylamide, reference compound] |  |  |  |  |  | highly pyrogenic |  |  | 
the sodium salt of N--acetylmuramyl-L-valyl-D-glutamyl-(C α)-n-butyl ester-(Cγ)-L-alanine-2-(1,2-dipalmitoyl-sn-glycero-3-hydroxyphosphoryloxy)-ethylamide [compound IV] | 68 | 52 |  | 18 | 20 |  | 64 | 23 | 
the sodium salt of N--acetylmuramyl-L-α-aminobutyryl-D-glutamyl-(Cα)-n-butyl ester-(Cγ)-L-alanine-2-(1,2-dipalmitoyl-sn-glycero-3-hydroxyphosphoryloxy)-ethyl-amide [compound II] | 10 | 23 | 11 | 21 | 48 |  |  |  | 74
the sodium salt of N-propionylnormuramyl-L-alanyl-D-glutamyl-(Cα)-n-butyl ester-(Cγ)-L-alanine-2-(1,2-dipalmitoyl-sn-glycero-3-hydroxyphosphoryloxy)-ethylamide [Active ingredient II] | 76 | 79 |  | 81 | 47 |  | 64 | 3 | 
